*1 amine or outer side, *2 acyl side, *3 side chain or, on linkers, in order; H or OH if unused. Where a SMILES comes first, the peptide text is derived from it. Side-chain parts run from the residue outwards. [ ]: non-standard residue; d: D form. The star is where a group is joined. C20 diacid = O=C(O)CCCCCCCCCCCCCCCCCCC(=O)*; γGlu = O=C(O)[C@H](CCC(=O)[*:2])N[*:1]; εLys = N[C@@H](CCCCN[*:1])C(=O)[*:2]; Aib = CC(C)(N)C(=O)O
Tests used:
hGIP Receptor = target: T1, hGIP Receptor (Homo sapiens, UniProt P48546); test: Receptor activation: cAMP production by CRE-luciferase reporter in stably transfected BHK cells; assay type: cell-based; settings: compared to the native ligand for the receptor
T1 construct: expressed in transfected cells; host or cells: baby hamster kidney (BHK) cells, stably transfected, with CRE-firefly luciferase reporter
T1 sequence (P48546 22-466): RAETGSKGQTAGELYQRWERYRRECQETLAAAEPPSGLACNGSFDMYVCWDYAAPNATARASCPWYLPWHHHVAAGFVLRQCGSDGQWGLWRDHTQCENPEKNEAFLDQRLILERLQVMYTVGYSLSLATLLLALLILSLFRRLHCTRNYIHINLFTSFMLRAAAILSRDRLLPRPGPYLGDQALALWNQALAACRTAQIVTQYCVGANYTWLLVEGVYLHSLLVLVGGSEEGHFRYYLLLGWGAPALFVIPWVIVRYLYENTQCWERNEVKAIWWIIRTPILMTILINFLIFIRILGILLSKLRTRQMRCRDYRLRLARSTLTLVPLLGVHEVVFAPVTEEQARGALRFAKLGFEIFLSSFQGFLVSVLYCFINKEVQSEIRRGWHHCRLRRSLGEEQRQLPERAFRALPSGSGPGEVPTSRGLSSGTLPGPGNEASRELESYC
Method in brief: (§1)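 BHK cells stably expressing one human receptor plus a CRE-firefly luciferase reporter were stimulated 3 h at 37 °C in phenol-red-free DMEM with 1% ovalbumin and 0.1% Pluronic F-68.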

hGLP-1 Receptor = target: T2, hGLP-1 Receptor (Homo sapiens, UniProt P43220); test: as above; assay type: cell-based; settings: compared to the native ligand for the receptor
T2 construct: expressed in transfected cells; host or cells: baby hamster kidney (BHK) cells, stably transfected, with CRE-firefly luciferase reporter
Method in brief: as §1

hGcg Receptor = target: T3, hGcg Receptor (Homo sapiens, UniProt P47871); test: as above; assay type: cell-based; settings: compared to the native ligand for the receptor
T3 construct: expressed in transfected cells; host or cells: baby hamster kidney (BHK) cells, stably transfected, with CRE-firefly luciferase reporter
Method in brief: as §1

mGLP-1 Receptor = target: T4, mGLP-1 Receptor (Mus musculus, UniProt O35659); test: as above; assay type: cell-based; settings: relative to native ligand at mouse-derived receptor
T4 construct: expressed in transfected cells; host or cells: baby hamster kidney (BHK) cells, stably transfected, with CRE-firefly luciferase reporter
T4 sequence (O35659 22-463): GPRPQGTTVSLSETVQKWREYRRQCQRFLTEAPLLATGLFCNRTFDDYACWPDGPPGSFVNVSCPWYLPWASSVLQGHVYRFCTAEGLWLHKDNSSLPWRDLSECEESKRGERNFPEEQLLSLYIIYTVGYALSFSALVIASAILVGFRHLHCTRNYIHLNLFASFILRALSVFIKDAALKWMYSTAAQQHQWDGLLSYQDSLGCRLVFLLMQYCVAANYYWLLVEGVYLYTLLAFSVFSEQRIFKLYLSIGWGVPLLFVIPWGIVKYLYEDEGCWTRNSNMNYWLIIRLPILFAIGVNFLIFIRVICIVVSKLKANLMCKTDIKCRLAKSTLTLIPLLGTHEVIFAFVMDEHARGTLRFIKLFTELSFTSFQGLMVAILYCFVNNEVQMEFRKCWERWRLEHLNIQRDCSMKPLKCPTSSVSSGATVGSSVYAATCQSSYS
Description: (§2) Cyclic AMP (cAMP) production was assessed as a proxy for receptor activation using stably transfected baby hamster kidney (BHK) cell lines expressing the DNA for one individual receptor (GLP-1R, GIPR, GcgR; human- or mouse-specific sequence) and the DNA for the firefly luciferase reporter gene linked to the cAMP response element (CRE). The cells were kept in continuous culture at 37 °C and 5% CO2 in Dulbecco's Modified Eagle Medium (DMEM) supplemented with 10% heat-inactivated fetal bovine serum (HI-FBS), 300 μg/mL hygromycin, and 500 μg/mL G418; for cell lines expressing GIPR, the G418 concentration was lowered to 400 μg/mL. Cells were plated in a 96-well poly-D-lysine-coated plate at 5,000 cells per well in growth media and incubated overnight at 37 °C with 5% CO2. After the overnight incubation, the media was removed, the plate was washed once in Dulbecco's phosphase-buffered saline (DPBS), and 50 μL of assay buffer (DMEM without phenol red, 10 mM HEPES, 1x Glutamax, 1% ovalbumin, 0.1% Pluronic F-68) was added to each well. […] The assay plate was covered to protect reagent from light, shaken at 250 rpm at room temperature for 30 min, and read in a microtiter plate reader. EC50 values were calculated using Prism software (GraphPad) with the nonlinear regression log(agonist) vs. response. A minimum of two replicates were measured for each sample.

mGIP Receptor = target: T5, mGIP Receptor (Mus musculus, UniProt Q0P543); test: as above; assay type: cell-based; settings: relative to native ligand at mouse-derived receptor
T5 construct: expressed in transfected cells; host or cells: baby hamster kidney (BHK) cells, stably transfected, with CRE-firefly luciferase reporter
T5 sequence (Q0P543 19-460): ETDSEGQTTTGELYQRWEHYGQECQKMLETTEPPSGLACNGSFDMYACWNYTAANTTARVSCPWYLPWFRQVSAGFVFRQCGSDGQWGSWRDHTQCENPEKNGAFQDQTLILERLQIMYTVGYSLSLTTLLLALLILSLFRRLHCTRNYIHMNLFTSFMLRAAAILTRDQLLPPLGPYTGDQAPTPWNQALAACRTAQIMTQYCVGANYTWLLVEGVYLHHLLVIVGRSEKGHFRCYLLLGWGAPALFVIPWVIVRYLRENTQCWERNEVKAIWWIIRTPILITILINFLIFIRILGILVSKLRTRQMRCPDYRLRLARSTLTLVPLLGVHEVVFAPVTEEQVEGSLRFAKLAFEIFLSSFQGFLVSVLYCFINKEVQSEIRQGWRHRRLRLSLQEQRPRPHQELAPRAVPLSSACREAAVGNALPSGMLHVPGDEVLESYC
Description: as §2

mGcg Receptor = target: T6, mGcg Receptor (Mus musculus, UniProt Q61606); test: as above; assay type: cell-based; settings: relative to native ligand at mouse-derived receptor
T6 construct: expressed in transfected cells; host or cells: baby hamster kidney (BHK) cells, stably transfected, with CRE-firefly luciferase reporter
Description: as §2

DIO mice [1] = test: Energy expenditure in DIO mice (indirect calorimetry); assay type: in vivo, mouse; settings: daily injections of 3 nmol/kg for 5 days inside an indirect calorimeter
Description: Energy expenditure was assessed using a combined indirect calorimetry system (TSE Systems, Chesterfield, MO). Animals were kept in the indirect calorimetry system for 7d; d1 (0–24h) included acclimation to the new cages but no energy expenditure readings, d2 included baseline energy expenditure readings with vehicle injections, d3-7 included experimental energy expenditure readings and treatment injections. Treatment injections begin at t = 48h as indicated by the vertical dashed line and were performed every 24h as indicated by the arrows. O2 consumption and CO2 production were measured every 20 min to determine the respiratory quotient and energy expenditure using the Weir equation (EE=(3.94 x vO2) + (1.1 x vCO2)).

DIO mice [2] = test: Plasma parameters in DIO mice after chronic treatment; assay type: in vivo, mouse; settings: higher dose (2 nmol/kg), compared to vehicle

T6 sequence (Q61606 27-485): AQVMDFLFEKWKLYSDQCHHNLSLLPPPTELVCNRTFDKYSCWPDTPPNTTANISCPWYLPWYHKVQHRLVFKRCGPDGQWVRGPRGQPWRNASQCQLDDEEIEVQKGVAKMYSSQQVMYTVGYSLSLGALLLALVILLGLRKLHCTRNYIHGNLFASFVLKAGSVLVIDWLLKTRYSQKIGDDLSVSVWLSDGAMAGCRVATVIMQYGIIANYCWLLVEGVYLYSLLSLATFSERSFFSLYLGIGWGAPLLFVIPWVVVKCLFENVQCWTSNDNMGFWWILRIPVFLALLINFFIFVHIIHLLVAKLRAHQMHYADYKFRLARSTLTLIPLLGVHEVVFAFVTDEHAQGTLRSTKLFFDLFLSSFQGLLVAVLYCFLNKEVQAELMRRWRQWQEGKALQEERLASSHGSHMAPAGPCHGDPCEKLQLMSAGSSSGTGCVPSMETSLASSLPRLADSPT
T2 sequence (P43220 24-463): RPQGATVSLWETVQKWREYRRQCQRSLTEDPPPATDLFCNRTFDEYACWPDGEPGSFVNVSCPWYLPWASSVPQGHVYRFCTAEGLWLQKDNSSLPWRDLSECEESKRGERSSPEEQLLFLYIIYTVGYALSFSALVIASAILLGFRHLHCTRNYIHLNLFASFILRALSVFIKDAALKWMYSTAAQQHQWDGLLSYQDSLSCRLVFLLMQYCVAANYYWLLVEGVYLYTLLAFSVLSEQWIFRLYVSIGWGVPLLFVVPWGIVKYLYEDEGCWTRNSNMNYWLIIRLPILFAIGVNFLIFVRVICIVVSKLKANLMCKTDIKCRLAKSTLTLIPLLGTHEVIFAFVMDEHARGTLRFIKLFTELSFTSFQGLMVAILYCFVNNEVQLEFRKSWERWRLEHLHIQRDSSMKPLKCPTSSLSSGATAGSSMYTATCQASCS
T3 sequence (P47871 26-477): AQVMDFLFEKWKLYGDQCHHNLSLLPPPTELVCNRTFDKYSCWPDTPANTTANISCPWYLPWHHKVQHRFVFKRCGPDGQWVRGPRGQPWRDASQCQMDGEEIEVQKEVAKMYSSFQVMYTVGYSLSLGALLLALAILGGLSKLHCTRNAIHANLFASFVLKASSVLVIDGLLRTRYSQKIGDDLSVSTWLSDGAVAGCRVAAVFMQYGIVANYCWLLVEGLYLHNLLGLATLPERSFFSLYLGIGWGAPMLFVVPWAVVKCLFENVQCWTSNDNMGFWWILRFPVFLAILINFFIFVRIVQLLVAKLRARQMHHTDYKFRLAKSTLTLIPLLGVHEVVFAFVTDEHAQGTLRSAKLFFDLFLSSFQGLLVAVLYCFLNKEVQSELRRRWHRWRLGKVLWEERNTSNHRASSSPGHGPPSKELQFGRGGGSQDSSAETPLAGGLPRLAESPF

## CC[C@H](C)[C@H](NC(=O)[C@H](CO)NC(=O)[C@H](Cc1ccc(O)cc1)NC(=O)[C@H](CC(=O)O)NC(=O)[C@H](CO)NC(=O)[C@@H](NC(=O)[C@H](Cc1ccccc1)NC(=O)[C@@H](NC(=O)CNC(=O)[C@H](Cc1c[nH]cn1)NC(=O)C(C)(C)NC(=O)[C@@H](N)Cc1c[nH]cn1)[C@@H](C)O)[C@@H](C)O)C(=O)N[C@@H](Cc1ccc(O)cc1)C(=O)N[C@@H](CC(C)C)C(=O)N[C@@H](CCC(=O)O)C(=O)N[C@@H](CCCCNC(=O)[C@@H](N)CCCCNC(=O)[C@@H](N)CCCCNC(=O)CC[C@H](NC(=O)CCCCCCCCCCCCCCCCCCC(=O)O)C(=O)O)C(=O)N[C@@H](CCCCN)C(=O)N[C@@H](Cc1ccc(O)cc1)C(=O)N[C@@H](C)C(=O)NC(C)(C)C(=O)N[C@@H](CCC(=O)O)C(=O)N[C@@H](Cc1ccccc1)C(=O)N[C@H](C(=O)N[C@@H](CCC(N)=O)C(=O)N[C@@H](Cc1c[nH]c2ccccc12)C(=O)N[C@@H](CC(C)C)C(=O)N[C@@H](CC(C)C)C(=O)N[C@@H](CCC(=O)O)C(=O)NCC(=O)NCC(=O)N1CCC[C@H]1C(=O)N[C@@H](CO)C(=O)N[C@@H](CO)C(=O)NCC(=O)N[C@@H](C)C(=O)N1CCC[C@H]1C(=O)N1CCC[C@H]1C(=O)N1CCC[C@H]1C(=O)N[C@@H](CO)C(N)=O)C(C)C [Compound 16] (H-H[Aib]HGTFTSDYSIYLEK([εLys-εLys-γGlu-C20 diacid])KYA[Aib]EFVQWLLEGGPSSGAPPPS-NH2)
hGIP Receptor
  hGIP Receptor Relative Potency %: 67%
hGLP-1 Receptor
  hGLP-1 Receptor Relative Potency %: 177%
hGcg Receptor
  hGcg Receptor Relative Potency %: 102%
mGLP-1 Receptor
  mGLP-1 Receptor Relative Potency %: 142%
mGIP Receptor
  mGIP Receptor Relative Potency %: 265%
mGcg Receptor
  mGcg Receptor Relative Potency %: 78%
DIO mice [1]
  energy expenditure: increased energy expenditure over both vehicle and tirzepatide
  locomotor activity: not accompanied by a change in locomotor activity
DIO mice [2]
  insulin levels: decreased

— PMC9305623, “Next generation GLP-1/GIP/glucagon triple agonists normalize body weight in obese mice” (Molecular Metabolism, 2022)
